pIC50: −log10 of the molar value. A value given as a limit tells only on which side of the number the result lay.

As usually defined, the pIC50 is the IC50 on a negative log10 scale, so that one unit is a factor of ten.

For assay [1], the system named is lipid A from E. coli 0113. Briefly: LAL assay, neutralization of lipid A endotoxin activity (FIG. 6). Type of assay: biochemical. The following applies: lipid A 30 ng/ml. As for the experimental part:
The lipid A region of the LPS molecule is primarily responsible for the inflammatory and toxic effects of LPS. When LPS is released from the microbe, the lipid A portion may become more accessible. The following assays were performed to determine the potential of various amino-terminal LF polypeptides to neutralize the endotoxic activity of the lipid A portion of LPS. LF, the 6 kDa fragment of LF, LF-33, LF-27, and polymyxin B were each tested for the ability to neutralize the endotoxin activity of lipid A from E. coli 0113 (30 ng/ml), using a LAL assay. […] The endotoxin activity of the smaller fragments of LF indicate that endotoxin-neutralizing activity of these small polypeptides is masked when in the context of the intact LF molecule.

The test system of another assay is E. coli 0111. Nature of the assay: Potentiation of Rifampicin by LF polypeptides. The following applies: 5 μM polypeptide + 0.9 μg/ml rifampicin, 6 hr.
For another assay, the system named is P. aer. LPS. Nature of the assay: Limulus ELISA, ENC50 against P. aer. LPS. The following applies: endotoxin 200 EU/ml; mean +/− SD. Type of assay: biochemical, Pseudomonas aeruginosa. As for the experimental part: The peptide-mediated inhibition of endotoxin-induced Limulus amebocyte lysate (LAL) coagulation was measured with a sensitive LAL assay (Zhang et al., J. Clin. Microbiol. 32: 416-422 (1994)). Limulus ELISA is an endotoxin assay based on activation of the LAL coagulation by endotoxin and detection of the generated peptide-C immunoreactivity with an ELISA using a monoclonal antibody to the polypeptide. Endotoxin was defined to be neutralized when it lost its ability to activate the LAL enzymes. The 50% endotoxin-neutralizing concentration (ENC50) reflects the potency of an anti-endotoxin agent; a low ENC50 indicates high potency. Table 2 lists the determined ENC50 value of each anti-endotoxin agent against lipid A and four different types of LPS. The potency of each anti-endotoxin agent varied depending on the type of endotoxin. […] The only difference between the sequence of LF-33 and LF-27 is that LF-27 lacks the first six residues (GRRRRS) at the N-terminus of LF-33. Remarkably, this deletion led to dramatic loss of the endotoxin-neutralizing capacity of the polypeptide in this assay. Binding of serum proteins to endotoxin neutralizes the endotoxin activity in this assay by preventing endotoxin from activating LAL (Emancipator et al., Infect. Immun. 60: 596-601 (1992)).
LPS. […] LPS (purity >99%) from Neisseria meningitidis was prepared from the group B strain #6275 and its potency was 25 EU/ng. […] The potency of the above endotoxin was determined with the Limulus enzyme-linked immunosorbent assay (ELISA, 43) in comparison with US Pharmacopeia reference standard endotoxin EC-5.
Briefly, 25 μl endotoxin solution (200 EU/ml) was mixed with an equal volume of test materials in a series of two-fold dilution in 0.15 M NaCl in a sterile 96-well tissue culture plate (Nunc A/S, Roskilde, Denmark), and incubated at 37° C. for 1 h in a dry-air incubator. […] The endotoxin activity was then quantified with the use of Limulus ELISA (Zhang et al., J. Clin. Microbiol. 32: 416-422 (1994)). […] The high sensitivity of the assay allowed for very low levels of the endotoxin activity to be detected. […]
Background: An ELISA detects its analyte on a solid surface through an enzyme-linked reagent.

Description for E. coli 0111: E. coli cultures were exposed to sub-optimal doses of Rifampicin in the presence or absence of sub-optimal doses of the indicated polypeptides (FIG. 5), and were incubated for 6 hours, at which point CFU were determined.
E. coli 0111 were grown overnight as described above. Overnight cultures were then diluted 1:16,000 in 1% BP/PBS containing 0.9 μg/ml Rifampicin (Sigma-Aldrich Fine chemicals) and 5 μM LF polypeptides as indicated. Control cultures were those not exposed to any polypeptide. The diluted cultures were then incubated at 37° C. for 6 hr with aeration by shaking. The number of viable bacteria were then determined by dilution plating samples from each group and subsequently counting colony forming units (CFU). All values represent the average of duplicate independent experiments.

Turning to “6 kDa polypeptide: 6 kDa fragment produced by cathepsin D digestion of human LF, amino acids 1-49 of SEQ ID NO: 2 (GRRRRSVQWCAVSQPEATKCFQWQRNMRKVRGPPVSCIKRDSPIQCIQA; listed as Homo sapiens)”, in assay [1], the “lipid A neutralizing activity” value was “neutralized lipid A”. Also, the “effect on the antimicrobial activity of rifampicin (viable bacteria)” value with E. coli 0111 was “more than three orders of magnitude”.

For `CSCC[C@H](NC(=O)[C@H](CC(N)=O)NC(=O)[C@H](CCCNC(=N)N)NC(=O)[C@H](CCC(N)=O)NC(=O)[C@H](Cc1c[nH]c2ccccc12)NC(=O)[C@H](CCC(N)=O)NC(=O)[C@H](Cc1ccccc1)NC(=O)[C@H](CS)NC(=O)[C@H](CCCCN)NC(=O)[C@@H](NC(=O)[C@H](C)NC(=O)[C@H](CCC(=O)O)NC(=O)[C@@H]1CCCN1C(=O)[C@H](CCC(N)=O)NC(=O)[C@H](CO)NC(=O)[C@@H](NC(=O)[C@H](C)NC(=O)[C@H](CS)NC(=O)[C@H](Cc1c[nH]c2ccccc12)NC(=O)[C@H](CCC(N)=O)NC(=O)[C@@H](N)C(C)C)C(C)C)[C@@H](C)O)C(=O)N[C@@H](CCCNC(=N)N)C(=O)N[C@@H](CCCCN)C(=O)N[C@H](C(=O)N[C@@H](CCCNC(=N)N)C(=O)NCC(=O)N1CCC[C@H]1C(=O)O)C(C)C` [LF-27], the “lipid A neutralizing activity” value in assay [1] is recorded as “neutralized lipid A”. Further, in the assay on P. aer. LPS, the “ENC50 against P. aer. LPS” value is given as “no detectable activity” and the pIC50 was < 3.52. Moreover, the “effect on the antimicrobial activity of rifampicin (viable bacteria)” value with E. coli 0111 is reported as “no significant effect”.

For the origin of these results see patent US6399570B1, “Antimicrobial/endotoxin neutralizing polypeptide” (priority 1999, dated 2002).
